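Five compound concentrations were applied to cells in 96-well plates for 48 hours; endpoints were derived by simple linear interpolation of the resulting dose-response curve. GI50 is the concentration that inhibits growth by half.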 Calls of active or inactive are those of the source. Rule as the data show it: active = GI50 up to about 1.1 µM and inactive = higher.
Tests used:
Experiment in all cases: NCI-60 cell line screen, 48 h
K562 = test system: K562
RPMI-8226 = test system: RPMI-8226
UO-31 = test system: UO-31
KM12 = test system: KM12
HOP-62 = test system: HOP-62
SF-539 = test system: SF-539
OVCAR-3 = test system: OVCAR-3
SN12C = test system: SN12C
SK-OV-3 = test system: SK-OV-3
ACHN = test system: ACHN
LOX IMVI = test system: LOX IMVI
RXF 631 = test system: RXF 631
DMS-273 = test system: DMS-273
NCI-H226 = test system: NCI-H226
OVCAR-5 = test system: OVCAR-5
HCT-15 = test system: HCT-15
Malme-3M = test system: Malme-3M
SF-295 = test system: SF-295
LXFL 529 = test system: LXFL 529
A549 = test system: A549
OVCAR-8 = test system: OVCAR-8
COLO 205 = test system: COLO 205
SW-620 = test system: SW-620
UACC-257 = test system: UACC-257
SK-MEL-28 = test system: SK-MEL-28
NCI-H23 = test system: NCI-H23
HOP-92 = test system: HOP-92
KM-20L2 = test system: KM-20L2
SNB-19 = test system: SNB-19
UACC-62 = test system: UACC-62
DMS-114 = test system: DMS-114
TK-10 = test system: TK-10
HL-60 = test system: HL-60
NCI-H522 = test system: NCI-H522
MOLT-4 = test system: MOLT-4
EKVX = test system: EKVX
SNB-75 = test system: SNB-75
SF-268 = test system: SF-268
A498 = test system: A498
HCC 2998 = test system: HCC 2998
U-251 = test system: U-251
M14 = test system: M14
HCT-116 = test system: HCT-116
XF498 = test system: XF498
786-0 = test system: 786-0
HT-29 = test system: HT-29
CCRF-CEM = test system: CCRF-CEM
NCI-H460 = test system: NCI-H460
OVCAR-4 = test system: OVCAR-4
SNB-78 = test system: SNB-78
CAKI-1 = test system: CAKI-1
RXF 393 = test system: RXF 393
SK-MEL-5 = test system: SK-MEL-5
IGROV-1 = test system: IGROV-1
DLD-1 = test system: DLD-1

CC(C)(CN1CCOCC1)C(=O)/C=C/c1ccc(/C=C/C(=O)C(C)(C)CN2CCOCC2)cc1
GI50 (K562): 239 nM (active) | GI50 (RPMI-8226): 2.7 µM (inactive) | GI50 (UO-31): 1.75 µM (inactive) | GI50 (KM12): 1.54 µM (inactive) | GI50 (HOP-62): 2.46 µM (inactive) | GI50 (SF-539): 2.07 µM (inactive) | GI50 (OVCAR-3): 1.07 µM (active) | GI50 (SN12C): 1.35 µM (inactive) | GI50 (SK-OV-3): 3.85 µM (inactive) | GI50 (ACHN): 1.52 µM (inactive) | GI50 (LOX IMVI): 393 nM (active) | GI50 (RXF 631): 1.36 µM (inactive) | GI50 (DMS-273): 457 nM (active) | GI50 (NCI-H226): 2.29 µM (inactive) | GI50 (OVCAR-5): 1.8 µM (inactive) | GI50 (HCT-15): 297 nM | GI50 (Malme-3M): 2.12 µM (inactive) | GI50 (SF-295): 2.21 µM (inactive) | GI50 (LXFL 529): 1.1 µM (active) | GI50 (A549): 2.89 µM (inactive) | GI50 (OVCAR-8): 1.45 µM (inactive) | GI50 (COLO 205): 1.64 µM (inactive) | GI50 (SW-620): 1.01 µM (active) | GI50 (UACC-257): 1.99 µM (inactive) | GI50 (SK-MEL-28): 1.77 µM (inactive) | GI50 (NCI-H23): 1.58 µM (inactive) | GI50 (HOP-92): 2.33 µM (inactive) | GI50 (KM-20L2): 1.36 µM (inactive) | GI50 (SNB-19): 1.55 µM (inactive) | GI50 (UACC-62): 1.56 µM (inactive) | GI50 (DMS-114): 757 nM (active) | GI50 (TK-10): 1.86 µM (inactive) | GI50 (HL-60): 1.45 µM (inactive) | GI50 (NCI-H522): 278 nM (active) | GI50 (MOLT-4): 281 nM (active) | GI50 (EKVX): 1.65 µM (inactive) | GI50 (SNB-75): 1.94 µM (inactive) | GI50 (SF-268): 1.59 µM (inactive) | GI50 (A498): 1.97 µM (inactive) | GI50 (HCC 2998): 1.83 µM (inactive) | GI50 (U-251): 1.24 µM (inactive) | GI50 (M14): 1.69 µM (inactive) | GI50 (HCT-116): 408 nM (active) | GI50 (XF498): 1.42 µM (inactive) | GI50 (786-0): 2 µM (inactive) | GI50 (HT-29): 467 nM (active) | GI50 (CCRF-CEM): 1.36 µM (inactive) | GI50 (NCI-H460): 3.5 µM (inactive) | GI50 (OVCAR-4): 942 nM (active) | GI50 (SNB-78): 1.21 µM (inactive) | GI50 (CAKI-1): 1.4 µM (inactive) | GI50 (RXF 393): 1.83 µM (inactive) | GI50 (SK-MEL-5): 1.79 µM (inactive) | GI50 (IGROV-1): 2.09 µM (inactive) | GI50 (DLD-1): 338 nM (active)

From ChEMBL document CHEMBL1201862, “PubChem BioAssay data set” (2004)
